Measurements from the supplement of paper PMC11208160.

assay: recombinant UMI read abundance after kanamycin selection (control-corrected) (log10(CPM+1)); higher = more efficient recombination; extreme values may be limits of the assay; sequences stand for … in AGTGCAGAGAAAATCGGCCAGTTTTCTCTGCCTGCAGTCCGCATGCCGTGGGACCCCTTGGGTTCTAACCTGTTGCCTAGATTTATGCAGCGGACTGCCTTTCTCCCAAAGTGATAAACCGG…AGGTTGGTTTCACT; site = the 11-nt donor
Method in brief: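 Pooled Escherichia coli screen of donor and donor-binding-loop pairs for the IS621 bridge recombinase. Each pair sits with a 12-nt UMI on a plasmid carrying a promoterless kanamycin gene. The library was co-electroporated with a target plasmid encoding a fixed target and T7-inducible recombinase, then plated with IPTG (0.07 mM) plus kanamycin, or unselected, each in two replicates. Recombinant UMIs were PCR-amplified across the donor–target junction and sequenced. Counts became CPM, averaged over replicates, scaled by control-derived factors and reported as log10(CPM+1).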
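Further: IS621 bridge recombinase in Escherichia coli cells against a fixed T5 target plasmid.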

Sequence | recombinant UMI read abundance (log10)
AGAAGGCCATGGACCGGTTTTCCCGGTAATCCGTATTTGAC (site AAAAGGCCTGT) | 0
CGATCATCATGGACCGGTTTTCCCGGTAATCCGTATTTGCT (site CGATCAGCTTG) | 0
CGGAATCCATGGACCGGTTTTCCCGGTAATCCGTATTTGTT (site CAGAAGCCTAA) | 0.0058
CGAGGACCATGGACCGGTTTTCCCGGTAATCCGTATTTGGA (site CGAGGACCTCC) | 0.0127
GCTCTCGCATGGACCGGTTTTCCCGGTAATCCGTATTTGTT (site GCTCTCGCTAA) | 0.534
CGGGAGTCATGGACCGGTTTTCCCGGTAATCCGTATTTGCC (site CGGTAGTCTGG) | 0.878
AAGCCTTCATGGACCGGTTTTCCCGGTAATCCGTATTTGGT (site CAGCCTTCTAC) | 0.357
AGCCTTTCATGGACCGGTTTTCCCGGTAATCCGTATTTGTC (site AGCCTTTCTGC) | 0
AGGTCGGCATGGACCGGTTTTCCCGGTAATCCGTATTTGGC (site AGGTCGGCTGC) | 2.13
GTAGTCGCATGGACCGGTTTTCCCGGTAATCCGTATTTGAG (site GTAGTCGCTCC) | 0.924
CGAGGACCATGGACCGGTTTTCCCGGTAATCCGTATTTGCG (site CGAGGACCTCT) | 0.00945
TAGGGATCATGGACCGGTTTTCCCGGTAATCCGTATTTGCG (site TAGGGATCTCG) | 2.78
AGCCGTTCATGGACCGGTTTTCCCGGTAATCCGTATTTGAC (site AGCCATTCTGT) | 0
AACCGTCCATGGACCGGTTTTCCCGGTAATCCGTATTTGAT (site CACCGTCCTAT) | 0.00991
CTACGGCCATGGACCGGTTTTCCCGGTAATCCGTATTTGCC (site CTACGGCCTGG) | 0.363
CGGTATCCATGGACCGGTTTTCCCGGTAATCCGTATTTGTC (site CGGTATCCTGA) | 0
GGTGCAACATGGACCGGTTTTCCCGGTAATCCGTATTTGTA (site GGTTCAACTTA) | 0.00709
CTTTACACATGGACCGGTTTTCCCGGTAATCCGTATTTGGG (site CTTTACACTCC) | 0.147
CGCCCTACATGGACCGGTTTTCCCGGTAATCCGTATTTGAG (site CGCCCTACTCT) | 1.44
ACCTAGACATGGACCGGTTTTCCCGGTAATCCGTATTTGTG (site ACCTAGACTCG) | 0.469
CGATCATCATGGACCGGTTTTCCCGGTAATCCGTATTTGCT (site CGAGCAGCTAG) | 0
CACGGCTCATGGACCGGTTTTCCCGGTAATCCGTATTTGTT (site CACGGCGCTAA) | 0.0461
TAATGAGCATGGACCGGTTTTCCCGGTAATCCGTATTTGGG (site TAATTAGCTCC) | 0.00449
GTTAGAACATGGACCGGTTTTCCCGGTAATCCGTATTTGGC (site GTTAGACCTGC) | 0
CCTTTAGCATGGACCGGTTTTCCCGGTAATCCGTATTTGTG (site CCTTTAGCTCA) | 0.0063

Sequence | recombinant UMI read abundance (log10)
GCCACGCCATGGACCGGTTTTCCCGGTAATCCGTATTTGGA (site GCCACGCCTTA) | 0.00593
CTGAATGCATGGACCGGTTTTCCCGGTAATCCGTATTTGTT (site CTGAATGCTAA) | 1.94
CTTCTTTCATGGACCGGTTTTCCCGGTAATCCGTATTTGTA (site CTTCTGTCTTA) | 0.00353
CGGAATACATGGACCGGTTTTCCCGGTAATCCGTATTTGTT (site CGGAATACTAA) | 2.18
AATTATGCATGGACCGGTTTTCCCGGTAATCCGTATTTGGA (site AATTATGCTAC) | 0.0199
CGCCGTACATGGACCGGTTTTCCCGGTAATCCGTATTTGCT (site CGCCGCACTAG) | 0.796
GCACGAACATGGACCGGTTTTCCCGGTAATCCGTATTTGTC (site CCACGAACTGA) | 2.19
CGGAATCCATGGACCGGTTTTCCCGGTAATCCGTATTTGTT (site CGAAATCCTAA) | 0
GCTGAACCATGGACCGGTTTTCCCGGTAATCCGTATTTGTC (site GCTGAACCTGA) | 0
CAAGCGCCATGGACCGGTTTTCCCGGTAATCCGTATTTGTG (site CAACCGCCTCA) | 0.0221
ACGGATTCATGGACCGGTTTTCCCGGTAATCCGTATTTGCG (site ACGGATTCTCG) | 2.66
CGTTTGCCATGGACCGGTTTTCCCGGTAATCCGTATTTGCT (site CGTTTGCCTAG) | 0.79
GACAAACCATGGACCGGTTTTCCCGGTAATCCGTATTTGGT (site GACAAAACTAC) | 0
ACCGTATCATGGACCGGTTTTCCCGGTAATCCGTATTTGCA (site ACAGTATCTTG) | 2.58
TGGTCGGCATGGACCGGTTTTCCCGGTAATCCGTATTTGGC (site TGGACGGCTGC) | 0
TGCGCTTCATGGACCGGTTTTCCCGGTAATCCGTATTTGGG (site TGCGCTTCTCC) | 0.0195
CGATCATCATGGACCGGTTTTCCCGGTAATCCGTATTTGCT (site GAATCATCTAG) | 0
GACAACCCATGGACCGGTTTTCCCGGTAATCCGTATTTGCT (site GACAACCCTAG) | 0.00684
AATAGTGCATGGACCGGTTTTCCCGGTAATCCGTATTTGGT (site ACTAGTGCTAC) | 0.687
GACAAACCATGGACCGGTTTTCCCGGTAATCCGTATTTGAT (site GACAAACCTAG) | 0
TCCACCACATGGACCGGTTTTCCCGGTAATCCGTATTTGCG (site TCCACCACTCG) | 0.0102
TCCCTTCCATGGACCGGTTTTCCCGGTAATCCGTATTTGCG (site TCCCTTCCTCG) | 0
ACTAGATCATGGACCGGTTTTCCCGGTAATCCGTATTTGAG (site ACTAGAACTCT) | 0.00628
CTACAGACATGGACCGGTTTTCCCGGTAATCCGTATTTGAG (site CTACAGACTCT) | 1.81
CGATCATCATGGACCGGTTTTCCCGGTAATCCGTATTTGCT (site CGCTCATCTAG) | 0.295

Sequence | recombinant UMI read abundance (log10)
AACCGTACATGGACCGGTTTTCCCGGTAATCCGTATTTGAT (site AACCGTCCTAT) | 0.0158
GTTAGAACATGGACCGGTTTTCCCGGTAATCCGTATTTGGC (site GTTAGAACTGT) | 0
ACTTCTACATGGACCGGTTTTCCCGGTAATCCGTATTTGTG (site ACGTCTACTCA) | 0.0444
ACAAAGGCATGGACCGGTTTTCCCGGTAATCCGTATTTGCT (site AAAAAGGCTAG) | 0
CACGGCACATGGACCGGTTTTCCCGGTAATCCGTATTTGTT (site CACGGCTCTAA) | 0.746
GCTCGAGCATGGACCGGTTTTCCCGGTAATCCGTATTTGCA (site GCTCGAGCTTG) | 2.67
AACCACGCATGGACCGGTTTTCCCGGTAATCCGTATTTGGG (site AAACACGCTCC) | 0.0131
CACAAACCATGGACCGGTTTTCCCGGTAATCCGTATTTGGT (site AACAAACCTAC) | 0
CAATGCTCATGGACCGGTTTTCCCGGTAATCCGTATTTGAA (site CATTGCTCTTT) | 0.408
GGTATGTCATGGACCGGTTTTCCCGGTAATCCGTATTTGTT (site GGTATGTCTAA) | 0.586
AGGAAGACATGGACCGGTTTTCCCGGTAATCCGTATTTGGA (site AGGAAGACTTT) | 1.63
TTTGCAGCATGGACCGGTTTTCCCGGTAATCCGTATTTGCT (site TTTGCAGCTAG) | 0.00605
ACATCTACATGGACCGGTTTTCCCGGTAATCCGTATTTGGG (site ACATCTACTCC) | 0.54
GAAGAGTCATGGACCGGTTTTCCCGGTAATCCGTATTTGTT (site GAAGATTCTAA) | 0.417
TCAAACTCATGGACCGGTTTTCCCGGTAATCCGTATTTGCA (site TCAAACTCTTG) | 1.55
AACTCCTCATGGACCGGTTTTCCCGGTAATCCGTATTTGCC (site TACTCCTCTGG) | 2.61
GTTGTACCATGGACCGGTTTTCCCGGTAATCCGTATTTGGT (site GTTGTTCCTAC) | 0
CCGGCAGCATGGACCGGTTTTCCCGGTAATCCGTATTTGTA (site CCGGCAGCTTA) | 0.665
CGATCACCATGGACCGGTTTTCCCGGTAATCCGTATTTGAT (site CGATCACCTAT) | 0.00371
TGGAAAACATGGACCGGTTTTCCCGGTAATCCGTATTTGCA (site AGGAAGACTTG) | 0.218
AGTCTGGCATGGACCGGTTTTCCCGGTAATCCGTATTTGAA (site AGTCTGGCTTT) | 1.19
CCGCATGCATGGACCGGTTTTCCCGGTAATCCGTATTTGCT (site CCGCATGCTAG) | 0.291
AATGAGACATGGACCGGTTTTCCCGGTAATCCGTATTTGGT (site AATGAGACTAC) | 1.58
TAGCTGGCATGGACCGGTTTTCCCGGTAATCCGTATTTGAA (site TAGCTCGCTTT) | 0.0161
CGTTAGACATGGACCGGTTTTCCCGGTAATCCGTATTTGTG (site CGTTAGACTCG) | 0.198
